Patent US12031897B2, “Target-locking single-molecule nanoscopy” (Memorial Sloan Kettering Cancer Center, priority 2019, dated 2024)

Columns and labels:
Nanog transcription site = assay: Nanog transcription bursting (MCP-mNeonGreen, NMG mESCs); type: cell-based, mouse
Description: (§1) It is discovered that Pol II, Sox2 and Brd4 form foci at Nanog transcription sites, with nanoscale organization akin to Pou5f1—colocalization of Pol II with 3′UTR-tagged nascent RNA and resolvable separation of enhancer-associated regulatory factors (FIGS. 9A-9D).
If accumulated Brd4 at Nanog acts mainly as a Pol II pause-release factor, upon Brd4 inhibition a reduction in burst amplitude would be expected. […] Thus, beyond controlling Pol II pause-release, Brd4 regulates transcription bursting, exemplified by the striking correspondence between burst frequency and enhancer-associated Brd4 cluster size. Bursting kinetics cannot be captured by static end-point assays that provide information averaged over a population of cells (e.g. ChIP, NET-Seq etc).
Wide-Field Cell Imaging Experiments. Live cell imaging experiments (tdPCP-EGFP and MCP-mNeonGreen tracking). For time-lapse imaging, a z-stack of 11 frames at 1 frame/second was acquired, by stepping the sample along the z-axis using the nanopositioning stage (250 nm steps). The CCD data were analyzed using IDL 6.4 (ITTVIS). Maximum projection images were calculated for each stack, and the resulting 11 sec/frame movie was used to track the intensities of individual tdPCP-EGFP-tagged transcription sites. A particle tracking routine (Crocker and Grier, 1996) was used for finding the positions of the transcription site in each frame and linking them into a 2D trajectory. The intensity trace of tdPCP-EGFP at the transcription site was corrected for photo-bleaching using the time trace of tdPCP-EGFP in a nearby nuclear region. The auto-correlation function was calculated (for the tdPCP-EGFP fluctuation analysis), or the data were imported in Origin 8.5.0 (OriginLab) and the trace fitted to a single-exponential decay (for the transcription inhibition experiments).
NMG mESCs contain 24×MS2 cassettes integrated in the 3′-UTR of both Nanog alleles and also stably express MCP-mNeonGreen (Ochiai et al., 2014).

[1] = biological target: T1, Brd4 foci at the Nanog locus (Mus musculus, UniProt Q9ESU6); assay: Brd4 cluster signal at Nanog vs. [JQ1]; type: cell-based; settings: mESCs
T1 construct: integrating a SNAP-tag at the N-terminus of the endogenous Brd4; endogenous in cells; host or cells: mouse ESCs NMG, NMG SNAP-Brd4 clone 7 (CRISPR knock-in, homozygous)
Method: as §1
For real-time confocal and STED imaging, example implementations may program the wave generator to scan 2 μm×2 μm or 1 μm×1 μm xy areas in 0.8 sec or 0.2 sec respectively. 3D scanning was performed (via, e.g., detection system 150) by acquiring 5 xy scans while moving the stage by 0.5 μm in z between scans. TTL pulses corresponding to single-photon events from the APDs, together with the trigger pulses from the wave generator were detected using a field-programmable gate array (FPGA) data acquisition system (National Instruments, PCIe-7852R).
Before imaging, cells were seeded onto 8-chamber coverglass (LabTek, 155411) coated with 5 μg/ml laminin (BioLamina LN511), in −2i media (OMG) or +2i media (NMG) and appropriate drugs. For SiR staining, cells were labeled with media containing 0.3 μM SiR-BG for 10 mins, at 37° C., followed by three washes with new media.
To generate OMG or NMG SNAP-Brd4 targeted cells, OMG-1 or NMG mESCs (1×106) were transfected with 10 μg SNAP-Brd4 donor vector and 0.6 μg espCas9-gRNA-Brd4 vector. […]

[2] = test system: SiR-Rpb1 (Pol II) in the nucleus of U2-OS cells; assay: SiR-Rpb1 FRAP in the nucleus of clone 5 cells; type: cell-based, human; settings: after ~30-40 minutes incubation with 10 μM Flavopiridol
Description: Live cell imaging experiments (SiR-Rpb1 FRAP). For SiR-Rpb1 FRAP experiments, time lapse images were acquired at 1 fps at a focal point adjusted at the mid-plane of the nucleus. To bleach molecules at a spot in the nucleus, an iris was used to block all but a small circle in the center of the excitation beam, the dynamic diffuser was removed and ˜[…] 642 nm laser power was applied for ˜10 seconds. Then, the 642 nm laser power was reduced to ˜7 W/μm2, the diffuser was put back in the optical path (resulting in additional drop in the power reaching the sample), the iris was removed and time-lapse acquisition continued. The recovery trace of SiR-Rpb1 at the bleached spot was corrected for photobleaching using the intensity of nearby (non-photobleached) regions in the nucleus.
Quantification of signal (S) and immobile background (Bi) at the transcription site. […] This behavior reflects gradual photobleaching of Pol II molecules residing within the excitation volume during the measurement and a constant background of molecules rapidly diffusing in and out. […] The Bi/Bd ratio is also consistent with: (i) Fluorescence Recovery After Photobleaching (FRAP) measurements at random nuclear locations (FIGS. 11K, 11L), showing that ˜40% of total Pol II is immobile (recovery time ˜20 min) and likely transcriptionally engaged; (ii) previous GFP-Pol II FRAP results in a related system.

| SMILES | Nanog burst duration (Nanog transcription site; JQ1 titration) | Hill equation n, Nanog burst frequency vs. [JQ1] (Nanog transcription site; Nanog, mESCs) | Nanog burst amplitude (Nanog transcription site; at higher [JQ1]) | Nanog burst frequency (Nanog transcription site; at low [JQ1]) | Hill curve n, relative Brd4 signal at Nanog vs. [JQ1] [1] | slow-recovering immobile Pol II population (FRAP) ([2]; ~40% in absence of Flavopiridol) | fast FRAP recovery of SiR-Rpb1 ([2]; ~60% in absence) |
| --- | --- | --- | --- | --- | --- | --- | --- |
| Cc1sc2c(c1C)C(c1ccc(Cl)cc1)=N[C@@H](CC(=O)OC(C)(C)C)c1nnc(C)n1-2 [JQ1] | largely unaffected | 0.9±0.3 | modest reduction | dramatically reduced | 1.0 |  |  |
| CN1CC[C@H](c2c(O)cc(O)c3c(=O)cc(-c4ccccc4Cl)oc23)[C@H](O)C1 [flavopiridol] |  |  |  |  |  | 10-15% | 85-90% |
